We go through 42 compounds from the Deep4Chem optical property database.

Structures are written as SMILES. Where “and” joins values, the source holds several entries; their conditions need not be identical. Equal entries are not always repeated.

The nature of the data set: solvent given as SMILES.

Regarding `COCCOCCOCCOCC(COCCOCCOCCOC)Oc1cc(/C=C/c2ccc(/C=C(\C#N)c3ccccc3)cc2)c(OC(COCCOCCOCCOC)COCCOCCOCCOC)cc1/C=C/c1ccc(/C=C(\C#N)c2ccccc2)cc1`, the absorption maximum (in ClCCl) is 433 nm.
`CC(C)(C)[Si](C)(C)C#Cc1c2c(=O)c3ccccc3c2c(C#C[Si](C)(C)C(C)(C)C)c2c(=O)c3ccccc3c12`: for the setting “in ClC(Cl)Cl”, the absorption maximum is 526 nm.
On to `CC(C)(C)c1ccc2c(c1)c1cc(C(C)(C)C)ccc1n2-c1ccc(C#Cc2ccccc2)cc1`, for which the absorption maximum reads like this: (in CC#N) 329 nm; (in CCCCC) 329 nm; (in CO) 329 nm; (in Cc1ccccc1) 335 nm; (in ClC(Cl)Cl) 329 nm; (in ClCCl) 334 nm.
As for `O=P1(c2ccccc2)C(c2cccs2)=Cc2ccccc21` (centres undefined), the absorption maximum (in C1CCOC1) turned out to be 368 nm.
`Clc1ccc(/C=C/c2nc3ccccc3s2)cc1`: the absorption maximum runs as follows: (in C1CCCCC1) 340 nm; (in CO) 340 nm.
For the compound `Cc1cc2ccccc2c2c1c1ccccc1n2-c1ccccc1`, where the note is “in ClCCl”, the absorption maximum was 303 nm.
As to `Cc1cn(C)c(=O)nc1-n1cncn1`, the absorption maximum (in O) turned out to be 323 nm.
Consider `Fc1cccc(F)c1[B-]1(c2c(F)cccc2F)Oc2c(ccc3c4c(ccc23)C=[N+](c2ccccc2)[B-](c2c(F)cccc2F)(c2c(F)cccc2F)O4)C=[N+]1c1ccccc1`, for which the absorption maximum reads like this: (in Cc1ccccc1) 538 nm; (in ClCCl) 534 nm.
`Cc1cccc(C)c1/C=C/c1nc(N2CCOCC2)c2c([n+]1[O-])CCCC2` displayed an absorption maximum (in ClCCl) of 384 nm.
As to `Nc1ccc2ccc([O-])cc2c1`, where the note is “in O”, the absorption maximum is given as 342 nm.
Turning to `C[C@]12C(=O)NC(=O)N([C@H]3CC(O)[C@@H](CO)O3)[C@H]1[C@H]1Oc3cc4oc(=O)ccc4cc3[C@H]12` (some centres undefined), the absorption maximum is, setting by setting: (in CC(C)O) 327 nm; (in CCO) 327 nm; (in CCOCC) 325 nm; (in CO) 328 nm; (in O) 329 nm.
As for `F[B-]1(F)n2c(-c3ccccc3)cc(-c3cccs3)c2N=C2C(c3cccs3)=CC(c3ccccc3)=[N+]21`, the absorption maximum (in ClCCl) is 683 nm.
In turn, `S=c1[nH]nc(-c2ccc(/C=C/c3ccc(-c4n[nH]c(=S)o4)cc3)cc2)o1` had an absorption maximum (in CN(C)C=O) of 334 nm.
Consider `COc1ccc(C2=c3sc(-c4ccc(OC)cc4)c(-c4ccc(OC)cc4)c3=[N+]3C2=Nc2c(-c4ccc(OC)cc4)c4sc(-c5ccc(OC)cc5)c(-c5ccc(OC)cc5)c4n2[B-]3(F)F)cc1`, for which the absorption maximum (in ClC(Cl)Cl) was found to be 784 nm.
`COc1ccc(/C=C(\C#N)c2nc(-c3ccc(OC)cc3)cs2)cc1` registered an absorption maximum (in CC#N) of 380 nm.
`c1ccc(-n2c(-c3ccc(-n4c5ccccc5c5ccccc54)cc3)nc3nccnc32)cc1` returned an absorption maximum (in CC#N) of 339 nm.
Regarding `CCCCC[n+]1ccc(/C=C/c2ccc(N(C)C)c3ccccc23)c2ccccc21`, the absorption maximum by setting is: (in C1CCOC1) 502 nm; (in C1COCCO1) 495 nm; (in CC#N) 496 nm; (in CC(C)=O) 503 nm; (in CCCCO) 522 nm; (in CCO) 508 nm. Besides, the absorption maximum reads like this: (in CN(C)C=O) 501 nm; (in CO) 503 nm; (in CS(C)=O) 506 nm; (in ClC(Cl)Cl) 522 nm; (in O) 452 nm; (in c1ccccc1) 494 nm. Under “in c1ccncc1”, this compound registered an absorption maximum of 526 nm.
As for `COC(=O)C(NC(=O)OC(C)(C)C)c1ccc2oc(-c3cc(OC)c(OC)cc3OC)nc2c1` (centres undefined), the absorption maximum was found to be 327 nm (in CC1CCCCC1), 333 nm (in CC#N) and 335 nm (in CO).
In turn, `c1ccc(N2c3ccc4ccccc4c3-c3c4ccccc4cn[n+]3[B-]2(c2ccccc2)c2ccccc2)cc1` had an absorption maximum (in Cc1ccccc1) of 524 nm.
For the compound `Cc1ccccc1-c1c2cccc3c(-c4ccc(C(C)(C)C)cc4)cc4c(-c5ccccc5C)c5cccc6c(-c7ccc(C(C)(C)C)cc7)cc1c(c65)c4c32`, the absorption maximum (in ClCCl) is 447 nm.
`CC(=O)c1ccc(/N=N/c2ccc(Nc3ccccc3)cc2)cc1`: the absorption maximum reads like this: (in C1CCOC1) 438 nm; (in CC#N) 432 nm; (in CC(=O)O) 544 nm; (in CN(C)C=O) 452 nm; (in CO) 443 nm; (in CS(C)=O) 459 nm. The same compound gave an absorption maximum (in Cc1ccccc1) of 429 nm, an absorption maximum (in ClC(Cl)Cl) of 427 nm and an absorption maximum (in ClCCl) of 432 nm.
As to `OC1(c2ccc(-c3cccs3)s2)CCC(c2ccccc2)CC1` (centres undefined), the absorption maximum was 313 nm (in C1CCOC1); 309 nm (in CC#N); 307 nm (in CCCCCC); 309 nm (in CCO); 311 nm (in OCCOCCO); 314 nm (in c1ccncc1).
Regarding `CC(C)[Si](C#Cc1c2ccc(C(C)(C)C)cc2c(C#Cc2c3ccc(C(C)(C)C)cc3c(C#C[Si](C(C)C)(C(C)C)C(C)C)c3ccc(C(C)(C)C)cc23)c2ccc(C(C)(C)C)cc12)(C(C)C)C(C)C`, the absorption maximum (in Cc1ccccc1) came to 523 nm.
Turning to `COc1ccc(-c2nc(-c3ccc(-c4nc(-c5ccc(OC)cc5)c(-c5ccc(OC)cc5)[nH]4)s3)[nH]c2-c2ccc(OC)cc2)cc1`, for the setting “in CC#N”, the absorption maximum was 365 nm.
On to `COCCC1=Cc2nc1ccc1[nH]c(cc1CCOC)c1nc(c(NC(=O)CCCC(=O)OC)cc3[nH]c2cc3CCOC)C(CCOC)=C1`, for which, for the setting “in Cc1ccccc1”, the absorption maximum is on record as 670 nm.
Turning to `CCN1C(=O)C(C2C(=O)c3c4ccccc4cc4cc5ccccc5c2c34)C(=O)N(CC)C1=S` (centres undefined), the absorption maximum (in ClCCl) is given as 532.11 nm.
As for `CCN(CC)c1ccc2c(c1)oc(=O)c1c(=O)oc3c(OC)cccc3c12`, the absorption maximum by setting is: (in CS(C)=O) 462 nm; (in ClCCl) 458 nm.
For the compound `CCCCC1=Cc2c3ccc4cccc5ccc(c6cc(-c7ccc(N(c8ccccc8)c8ccccc8)cc7)n(c26)P1(=O)c1ccccc1)c3c45` (centres undefined), the absorption maximum was 431 nm (in C1CCCCC1); 432 nm (in C1CCOC1); 432 nm (in C1COCCO1); 428 nm (in CC#N); 429 nm (in CC(C)=O); 428 nm (in CO). Further, the absorption maximum is given as 434 nm (in Cc1ccccc1), 433 nm (in ClC(Cl)Cl) and 431 nm (in ClCCl).
For the setting “in CC#N”, `c1ccc(-c2nc(-c3ccc(-c4cccs4)s3)[nH]c2-c2ccccc2)cc1` registered an absorption maximum of 365 nm.
Consider `CC1(C)c2ccccc2N(c2ccc(-c3ccc(C#N)c(C#N)n3)cc2)c2ccccc21`, for which the absorption maximum (in Cc1ccccc1) came out at 404 nm.
On the same count and under the same terms, the result for `CC1(C)c2ccccc2N(c2ccc(-c3ncc(C#N)cn3)cc2)c2ccccc21` reads 396 nm.
For `COc1ccc(-c2cc(-c3ccc(C)cc3)nc3c(C#N)c(N4CCCC4)nc(N)c23)cc1`, the absorption maximum (in CC#N) came out at 418 nm; the absorption maximum (in CC(C)=O) is given as 420 nm; the absorption maximum (in CC(C)O) amounted to 414 nm; the absorption maximum (in CO) was 414 nm; the absorption maximum (in ClC(Cl)Cl) is on record as 418 nm; the absorption maximum (in ClCCl) is reported as 422 nm. This compound also displayed an absorption maximum (in c1ccccc1) of 424 nm.
As to `CC1=[N+]2C(=C(c3ccc(C(=C(c4ccccc4)c4ccccc4)c4ccccc4)cc3)c3ccc(C)n3[B-]2(F)F)C=C1`, the absorption maximum (in C1CCOC1) is recorded as 511 nm.
Take `c1ccc(-c2nc(-c3ccc(-c4nc(-c5ccccc5)c(-c5ccccc5)[nH]4)cc3)[nH]c2-c2ccccc2)cc1`: the absorption maximum by setting is: (in C1CCOC1) 361 nm; (in CC#N) 355 nm and 358 nm; (in CC(=O)O) 360 nm; (in CC(C)=O) 360 nm; (in CCOC(C)=O) 359 nm; (in CCOCC) 359 nm. Further, the absorption maximum (in CO) was 357 nm, the absorption maximum (in CS(C)=O) is on record as 380 nm and the absorption maximum (in ClC(Cl)Cl) is reported as 358 nm.
`CN(C)c1ccc(/C=C/c2ncnc3ccccc23)cc1` registered an absorption maximum (in ClCCl) of 433 nm.
On to `Cc1cc(-c2ccc(-n3c4ccccc4c4ccccc43)cc2)nc(-c2ccc(-c3ccccc3)cc2)n1`, for which the absorption maximum runs as follows: (in C1CCOC1) 341 nm; (in CN(C)C=O) 341 nm; (in Cc1ccccc1) 341 nm; (in ClC(Cl)Cl) 341 nm.
In the case of `CCCCCCCCCCCCOc1cc2c3c(ccc4c5c(OC6CCC(C(C)(C)C)CC6)cc6c7c(ccc(c1c34)c75)C(=O)N(C1CCCCC1)C6=O)C(=O)N(C1CCCCC1)C2=O` (centres undefined), the absorption maximum (in ClC(Cl)Cl) worked out at 558 nm.
In the case of `c1ccc(-c2nc(-c3ccccc3)nc(-c3ccc(N4c5ccccc5[Si](c5ccccc5)(c5ccccc5)c5ccccc54)cc3)n2)cc1`, the absorption maximum (in Cc1ccccc1) is 376.66 nm.
As for `COc1ccc(C#Cc2ccc(C#N)cc2)cc1`, the absorption maximum (in C1COCCO1) is 330 nm; the absorption maximum (in CC#N) stood at 324 nm; the absorption maximum (in CCCCCC) is reported as 331 nm; the absorption maximum (in CCCCCCC) worked out at 332 nm; the absorption maximum (in CCCO) was found to be 328 nm; the absorption maximum (in CCOC(C)=O) is listed as 328 nm. Also, the absorption maximum worked out at 329 nm (in CS(C)=O), 332 nm (in ClC(Cl)Cl) and 330 nm (in ClCCl).
As to `CCC1=C(C)C(=O)n2c1cc1c(CCC(=O)OC)c(C)c(C)n1c2=O`, the absorption maximum by setting is: (in CC#N) 420 nm; (in CC(C)=O) 420 nm; (in CO) 426 nm; (in CS(C)=O) 427 nm; (in ClC(Cl)Cl) 429 nm; (in c1ccccc1) 425 nm.
Take `CCCCCCCCn1c2ccccc2c(=O)c2ccccc21`: where the note is “in CS(C)=O”, the absorption maximum worked out at 404 nm.
With `Cc1c(C)c(-c2ccc(-c3cccnc3)cc2)c(C)c(C)c1B(c1c(C)c(C)c(-c2ccc(-c3cccnc3)cc2)c(C)c1C)c1c(C)c(C)c(-c2ccc(-c3cccnc3)cc2)c(C)c1C`, the absorption maximum (in ClCCl) was determined as 331 nm.
